Data: PubChem BioAssay AID278 (DTP/NCI, 2004)
Results filed as inconclusive are left out.

Test system: nude mice, A549 intrarenal xenograft, tumor weight change
Test: NCI In Vivo Anticancer Drug Screen. Data for tumor model A549 Human Adenocarcinoma of Lung with characteristics of Type II Alveolar Epithelial cells (intrarenal inoculation) in NU/NU BALB/C (nude) mice
Details: endpoint: mean tumor weight change, higher = larger tumour
Description: The antitumor activity of compounds was measured in mice bearing transplantable tumors. Survival or tumor size were measured and the results are expressed as the measurement made in the treated group (T) divided by the measurement made in the vehicle treated control group (C). The tumor model used in this assay is A549 Human Adenocarcinoma of Lung with characteristics of Type II Alveolar Epithelial cells (intrarenal inoculation) in NU/NU BALB/C (nude) mice

[1] = dose: 75.0 mg/kg/injection, schedule: Q04DX003 (ip), vehicle: saline
[2] = dose: 150.0 mg/kg/injection, schedule: Q04DX003 (ip), vehicle: saline
[3] = dose: 150.0 mg/kg/injection, schedule: Q04DX003 (ip), vehicle: saline with Tween-80
[4] = dose: 300.0 mg/kg/injection, schedule: Q04DX003 (ip), vehicle: saline with Tween-80
[5] = dose: 600.0 mg/kg/injection, schedule: Q04DX003 (ip), vehicle: saline with Tween-80

SMILES: CC[C@@]1(O)C(=O)OCc2c1cc1n(c2=O)Cc2cc3ccccc3nc2-1
- T/C (dose: 2.0 mg/kg/injection, schedule: Q04DX003 (ip), vehicle: saline with Tween-80): 31 % of control
- T/C (dose: 4.0 mg/kg/injection, schedule: Q04DX003 (ip), vehicle: saline with Tween-80): 29 % of control
- T/C (dose: 6.0 mg/kg/injection, schedule: Q04DX003 (ip), vehicle: saline with Tween-80): -21 % of control
- T/C (dose: 8.0 mg/kg/injection, schedule: Q04DX003 (ip), vehicle: saline with Tween-80): 17 % of control
- T/C (dose: 10.0 mg/kg/injection, schedule: Q04DX003 (ip), vehicle: saline with Tween-80): -80 % of control
- T/C (dose: 16.0 mg/kg/injection, schedule: Q04DX003 (ip), vehicle: saline with Tween-80): 12 % of control

SMILES: CS(=O)(=O)CS(=O)(=O)OCCF
- T/C (dose: 6.25 mg/kg/injection, schedule: Q04DX003 (ip), vehicle: saline): 40 % of control
- T/C (dose: 12.5 mg/kg/injection, schedule: Q04DX003 (ip), vehicle: saline): 62 % of control
- T/C (dose: 25.0 mg/kg/injection, schedule: Q04DX003 (ip), vehicle: saline): 50 % of control
- T/C (dose: 50.0 mg/kg/injection, schedule: Q04DX003 (ip), vehicle: saline): 50 % of control

SMILES: CN=C(N)c1ccc(N=C(N)c2ccc(C(N)=Nc3ccc(C(N)=NC)cc3)cc2)cc1
- T/C (dose: 13.0 mg/kg/injection, schedule: Q06HX010 (ip), vehicle: water): 70 % of control
- T/C (dose: 20.0 mg/kg/injection, schedule: Q06HX010 (ip), vehicle: water): 98 % of control

SMILES: CCOC(=O)c1ccc(NN=NCCF)cc1
- T/C (dose: 75.0 mg/kg/injection, schedule: Q04DX003 (ip), vehicle: distilled water + Tween-80 + alcohol): 114 % of control
- T/C (dose: 150.0 mg/kg/injection, schedule: Q04DX003 (ip), vehicle: distilled water + Tween-80 + alcohol): 160 % of control
- T/C (dose: 300.0 mg/kg/injection, schedule: Q04DX003 (ip), vehicle: distilled water + Tween-80 + alcohol): 63 % of control

SMILES: CC(=O)NCCSSCCCCS(=O)O
- T/C [1]: 111 % of control
- T/C [2]: 60 % of control
- T/C (dose: 300.0 mg/kg/injection, schedule: Q04DX003 (ip), vehicle: saline): 39 % of control
- T/C (dose: 600.0 mg/kg/injection, schedule: Q04DX003 (ip), vehicle: saline): 70 % of control

SMILES: Nc1n[nH]c2ccccc12
- T/C [3]: 69 % of control
- T/C [4]: 52 % of control
- T/C [5]: 33 % of control

SMILES: C=C(Cl)C(=NC(C)(C)C)Nc1ccccc1C
- T/C (dose: 10.0 mg/kg/injection, schedule: Q04DX003 (ip), vehicle: Klucel + Tween-80): 73 % of control
- T/C (dose: 20.0 mg/kg/injection, schedule: Q04DX003 (ip), vehicle: Klucel + Tween-80): 68 % of control

SMILES: S=c1sc2ccccc2n1CN1CCOCC1
- T/C [3]: 81 % of control
- T/C [4]: 172 % of control
- T/C [5]: 57 % of control

SMILES: C=C(c1ccc(OC)c(OC)c1)c1nccc2cc(OC)c(OC)cc12
- T/C (dose: 150.0 mg/kg/injection, schedule: Q04DX003 (ip), vehicle: Klucel (hydroxypropylcellulose) (HPC)): 50 % of control
- T/C (dose: 300.0 mg/kg/injection, schedule: Q04DX003 (ip), vehicle: Klucel (hydroxypropylcellulose) (HPC)): 62 % of control

SMILES: CC1=CCCC2C1(C)CCC(C)C2(C)Cc1cc(O)ccc1O (stereo not drawn)
- T/C (dose: 100.0 mg/kg/injection, schedule: Q04DX003 (ip), vehicle: Klucel (hydroxypropylcellulose) (HPC)): 16 % of control

SMILES: O=C(Oc1ccccc1)c1cc(O)c(O)c(O)c1
- T/C (dose: 18.75 mg/kg/injection, schedule: Q04DX003 (ip), vehicle: saline): 60 % of control
- T/C (dose: 37.5 mg/kg/injection, schedule: Q04DX003 (ip), vehicle: saline): 80 % of control
- T/C [1]: 50 % of control
- T/C [2]: 62 % of control

SMILES: NC(Cc1ccccc1)C(=O)OCN1C(=O)C2C3C=CC(C2C1=O)C1C2C(=O)N(COC(=O)C(N)Cc4ccccc4)C(=O)C2C31 (stereo not drawn)
- T/C (dose: 25.0 mg/kg/injection, schedule: Q04DX003 (ip), vehicle: other): 82 % of control
- T/C (dose: 50.0 mg/kg/injection, schedule: Q04DX003 (ip), vehicle: other): 73 % of control
- T/C (dose: 100.0 mg/kg/injection, schedule: Q04DX003 (ip), vehicle: other): 48 % of control
- T/C (dose: 200.0 mg/kg/injection, schedule: Q04DX003 (ip), vehicle: other): 35 % of control
